The values that follow come from patent publication US20260176274A1, “ENAMINE N-OXIDE TOOLS FOR TARGET IDENTIFICATION APPLICATIONS” (DANA-FARBER CANCER INSTITUTE, INC., priority 2022, published 2026).

The test system of experiment [1] is BRD2/3/4. In words: Pulldown-MS chemoproteomics in HEK293T cell lysate, (+)-JQ1 probe. It is filed as binding, human. The settings on record: filter 1 quantified peptide in 3 replicates; against competitor or enantiomer controls. The procedure:
(§1) The same procedure as the “Streptavidin pull-down” was followed up to the wash steps. After the final wash, the supernatant was completely removed. Formamide elution buffer (95% v/v formamide, 5% v/v 100 mM sodium acetate, pH 10, 50 μL) was then added to the beads with gentle mixing. The beads were heated to 95° C. for 10 min, pelleted, and the supernatant was removed while hot and then allowed to cool to rt. The formamide elution was repeated a second time for a combined eluate volume of approximately 100 μL. The eluate samples were then submitted to the Dana-Farber TPD Core facility for further processing. […]
(§2) Peptides were analyzed on an Ultimate™ 3000 RSLCnano system coupled to a Tribrid series mass spectrometer (Thermo Fisher Scientific™). […]
(§3) RAW file processing, false discovery rate filtering (<1%), and protein roll-up and MS1 intensity-based label-free quantification (Minora algorithm) were achieved using Proteome Discoverer 2.5 (Thermo Fisher Scientific™). […] Peptides were quantified by precursor ion abundance and summed across proteins.
(§4) Proteins were filtered to include those with three or more unique peptides quantified across four replicate treatments, unless otherwise stated. […] All peptides of target proteins quantified at the single peptide level were manually inspected to ensure accuracy in quantification.

In experiment [2] the target is T1, BRD2/3/4 (Homo sapiens, UniProt O60885).
T1 construct: In Vitro BARS Labeling of Endogenous Target Proteins in Cell Lysate; endogenous in cells; host or cells: HEK293T lysate
Described as above. Type of experiment: binding. The settings on record: filter 3 quantified peptides in 3 replicates. As for the experimental part: as §1, §2, §3, §4

The target in a further experiment is T2, BRD4 (Homo sapiens, UniProt O60885).
T2 construct: In Cellulo BARS Labeling of Endogenous Target Proteins; endogenous in cells; host or cells: HEK293T
In words: In cellulo BARS labeling in live HEK293T cells, immunoblot against BRD4. Type of experiment: cell-based. The settings on record: probe 5 μM, B2(OH)4 100 μM 10 min. As for the experimental part: HEK293T cells were cultured in DMEM containing 10% FBS (Sigma), 100 units/mL penicillin, and 0.1 mg/mL streptomycin (Sigma) in a humidified chamber at 37° C. under an ambient atmosphere with 5% CO2. After culturing to >80% confluency in 150 mm plates, the plates were removed from the incubator, the media was aspirated, and the cells were trypsinized at 37° C. with 0.25% trypsin, 0.1% EDTA in HBSS (3 mL). After 3 min, complete growth medium (7 mL) was added to the detached cells, and the cell suspension was transferred to a 50 mL centrifuge tube. Cells were pelleted (400×g, 4 min, 23° C.) and washed with 2×20 mL PBS, pH 7.4. At this point, the density of the cell suspension in PBS was determined by the trypan blue exclusion method. The cells were pelleted once more, and the volume of PBS was adjusted to produce a cell suspension with a final density of 2×10^7 cells/mL. The cell suspension was aliquoted into 2 mL microcentrifuge tubes (3×1 mL, 2×10^7 cells each). […] Competitor 21′ (50 μM final concentration, from a 500 mM stock in DMSO) was also added to the third tube. The samples were incubated at 37° C. with end-over-end rotation. After 2 h of incubation, the cells were pelleted (400×g, 4 min, 23° C.) and washed once with PBS, pH 7.4.
A general note: A western blot detects proteins with antibodies after separation by electrophoresis.

As for `C#CCCC[N+](C)([O-])/C(Br)=C/C(Cl)CCCC(=O)NCCCCCCNC(=O)C[C@@H]1N=C(c2ccc(Cl)cc2)c2c(sc(C)c2C)-n2c(C)nnc21` (stereo partly drawn) [22′a, (Z)-1-Bromo-3-chloro-7-((6-(2-((S)-4-(4-chlorophenyl)-2,3,9-trimethyl-6H-thieno[3,2-f][1,2,4]triazolo[4,3-al][1,4]diazepin-6-yl)acetamido)hexyl)amino)-N-methyl-7-oxo-N-(pent-4-yn-1-yl)hept-1-en-1-amine oxide], the chemoproteomics hits entry in the experiment on BRD2/3/4 [1] was “BRD2/3/4 were identified as hits”. For the same compound, at BRD2/3/4 [2], the chemoproteomics protein identified result was “BRD4 was identified”. Further, on BRD4, the “target identification in live HEK293T cells (BRD4)” value is on record as “successfully executed”.
